# According to US20190159450A1, “PYRIDINE-BASED COMPOUND INCLUDING ISOXAZOLINE RING AND USE THEREOF AS HERBICIDE” (MOGHU RESEARCH CENTER LTD., priority 2016, published 2019):
# Tests used:
# Type in all cases: in vivo
# [1] = test system: maize; experiment: Herbicidal activity test, post-weeds emergence treatment (crop damage); details: assessed after 2 to 3 weeks, 0: no effect, 10: complete death
# Procedure: (§1) A rectangular plastic pot with a surface area of 300 cm^2 was filled with sandy loam soil and mixed soil at a ratio of 1:1, and four kinds of weeds including Quamoclit pennata, Abutilon theophrasti Medicus, and Aeschynomene indica, Xanthium strumarium were sown therein. In another pot made in the same way, three kinds of crop seeds including maize, wheat, and rice were sown. The pots were watered and one day later, a medicament was sprayed thereon. The spraying was performed by using a track sprayer (R&D Sprayer, USA) equipped with Teejet 8002EVS (Spraying Systems Co., USA) nozzle, and the spray amount was controlled to be 1000 L/ha. A spray solution was prepared by dissolving the compound of each example or a control material in acetone, and then, adding the same amount of 0.1% (v/v) tween 20 aqueous solution thereto. The spray amount was 200 g/ha. The pots were placed in a greenhouse in which the temperature was maintained at 25° C. to 30° C. during the day and 15° C. to 25° C. during the night, and was regularly watered. After 2 to 3 weeks from the spraying of the compounds or the control material, the efficacy and the damages on each weed and each crop were assessed according to the scale of 0-10 (0: no effect, 10: complete death) scale and the results are shown in Table 3 below.
# (§2) Pots for crops and weeds were prepared in the same manner as in Experimental Example 1, and then, when the crops and the weeds were raised up to 2 weeks roughly on a third-leaf stage, the compounds and the control material were sprayed thereon in the same manner as described above. The spray amount was 200 g/ha. After 2 to 3 weeks from the spraying of the test substance or the control substance, the efficacy and the damages on each weed and each crop were assessed according to the scale of 0-10 (0: no effect, 10: complete death) scale.
# (§3) Pots for crops and weeds were prepared in the same manner as the test method illustrated in Table 5, and four kinds of weeds selected from Quamoclit pennata, Abutilon theophrasti Medicus, and Aeschynomene indica, Xanthium strumarium were used. The spray amount was 200 g/ha for crops and 50 g/ha for weeds.
# [2] = test system: rice; experiment: as above; details: assessed after 2 to 3 weeks, 0: no effect, 10: complete death
# Procedure: as §1, §2, §3
# [3] = test system: wheat; experiment: as above; details: assessed after 2 to 3 weeks, 0: no effect, 10: complete death
# Procedure: as §1, §2, §3
# [4] = test system: maize; experiment: Herbicidal activity test, pre-weeds emergence treatment (crop damage); details: assessed 2 to 3 weeks after spraying, scale 0-10 (0: no effect, 10: complete death)
# Procedure: as §1
# (§4) Pots for crops and weeds were prepared in the same manner as the test method illustrated in Table 3, and three kinds of weeds selected from Quamoclit pennata, Abutilon theophrasti Medicus, and Aeschynomene indica, Xanthium strumarium were used.
# [5] = test system: rice; experiment: as above; details: assessed 2 to 3 weeks after spraying, scale 0-10 (0: no effect, 10: complete death)
# Procedure: as §1, §4
# [6] = test system: wheat; experiment: as above; details: assessed 2 to 3 weeks after spraying, scale 0-10 (0: no effect, 10: complete death)
# Procedure: as §1, §4
# [7] = test system: Aeschynomene indica; experiment: Herbicidal activity test, pre-weeds emergence treatment; details: assessed 2 to 3 weeks after spraying, scale 0-10 (0: no effect, 10: complete death)
# Procedure: as §1, §4
# [8] = test system: Abutilon theophrasti Medicus; experiment: as above; details: assessed 2 to 3 weeks after spraying, scale 0-10 (0: no effect, 10: complete death)
# Procedure: as §1, §4
# [9] = test system: Quamoclit pennata; experiment: as above; details: assessed 2 to 3 weeks after spraying, scale 0-10 (0: no effect, 10: complete death)
# Procedure: as §1, §4
# [10] = test system: Xanthium strumarium; experiment: as above; details: assessed 2 to 3 weeks after spraying, scale 0-10 (0: no effect, 10: complete death)
# Procedure: as §1, §4
# [11] = test system: Aeschynomene indica; experiment: Herbicidal activity test, post-weeds emergence treatment; details: assessed after 2 to 3 weeks, 0: no effect, 10: complete death
# Procedure: as §1, §2, §3
# [12] = test system: Abutilon theophrasti Medicus; experiment: as above; details: assessed after 2 to 3 weeks, 0: no effect, 10: complete death
# Procedure: as §1, §2, §3
# [13] = test system: Quamoclit pennata; experiment: as above; details: assessed after 2 to 3 weeks, 0: no effect, 10: complete death
# Procedure: as §1, §2, §3
# [14] = test system: Xanthium strumarium; experiment: as above; details: assessed after 2 to 3 weeks, 0: no effect, 10: complete death
# Procedure: as §1, §2, §3
# [15] = spray amount 200 g/ha for crops, Table 6
# [16] = spray amount 50 g/ha for weeds, Table 6
SMILES,"ZEAMX (maize) damage, scale of 0-10 [1, 15]","ORYSA (rice) damage, scale of 0-10 [2, 15]","TRZAW (wheat) damage, scale of 0-10 [3, 15]","PRE ZEAMX (maize), damage score ([4]; Table 4, 200 g/ha)","PRE ORYSA (rice), damage score ([5]; Table 4, 200 g/ha)","PRE TRZAW (wheat), damage score ([6]; Table 4, 200 g/ha)","PRE AESIN (Aeschynomene indica), efficacy score ([7]; Table 4, 200 g/ha)","PRE ABUTH (Abutilon theophrasti Medicus), efficacy score ([8]; Table 4, 200 g/ha)","PRE IPOAN (Quamoclit pennata), efficacy score ([9]; Table 4, 200 g/ha)","PRE XANST (Xanthium strumarium), efficacy score ([10]; Table 4, 200 g/ha)","AESIN (Aeschynomene indica) herbicidal efficacy, scale of 0-10 [11, 16]","ABUTH (Abutilon theophrasti Medicus) herbicidal efficacy, scale of 0-10 [12, 16]","IPOAN (Quamoclit pennata) herbicidal efficacy, scale of 0-10 [13, 16]","XANST (Xanthium strumarium) herbicidal efficacy, scale of 0-10 [14, 16]",also measured
"COc1ccc(COC(=O)c2nc(C3CC(Br)=NO3)cc(N)c2Cl)cc1 (centres unmarked) [Compound 89, 4-methoxybenzyl 4-amino-6-(3-bromo-4,5-dihydroisoxazol-5-yl)-3-chloropicolinate]",0,0,0,0,0,0,10,8,8,10,8,6,5,9,–
"Nc1cc(C2CC(Br)=NO2)nc(C(=O)OCc2ccc(F)cc2)c1Cl (centres unmarked) [Compound 90, 4-fluorobenzyl 4-amino-6-(3-bromo-4,5-dihydroisoxazol-5-yl)-3-chloropicolinate]",0,0,0,0,0,0,10,3,3,7,7,5,4,10,–
"Nc1cc(C2CC(Br)=NO2)nc(C(=O)OCc2ccc(Br)cc2)c1Cl (centres unmarked) [Compound 91, 4-bromobenzyl 4-amino-6-(3-bromo-4,5-dihydroisoxazol-5-yl)-3-chloropicolinate]",0,0,0,0,0,0,6,10,2,6,6,5,5,10,–
"Nc1cc(C2CC(Cl)=NO2)nc(C(=O)Oc2ccccc2)c1Cl (centres unmarked) [Compound 94, phenyl 4-amino-3-chloro-6-(3-chloro-4,5-dihydroisoxazol-5-yl)picolinate]",0,3,0,2,7,0,10,10,10,10,10,10,8,10,–
"Nc1cc(C2CC(Cl)=NO2)nc(C(=O)OCc2ccccc2)c1Cl (centres unmarked) [Compound 95, benzyl 4-amino-3-chloro-6-(3-chloro-4,5-dihydroisoxazol-5-yl)picolinate]",1,1,1,0,6,0,10,10,0,10,10,10,8,10,–
"Nc1c(Cl)c(F)nc(OCC(=O)O)c1Cl [fluroxypyr, reference compound]",3,3,0,4,8,3,10,7,9,9,3,7,6,10,"ZEAMX (maize) damage, scale of 0-10 ([1]; spray amount 200 g/ha, Table 5): 0; ORYSA (rice) damage, scale of 0-10 ([2]; spray amount 200 g/ha, Table 5): 4; TRZAW (wheat) damage, scale of 0-10 ([3]; spray amount 200 g/ha, Table 5): 3; PRE ZEAMX (maize), damage score ([4]; Table 3, 200 g/ha): 3; PRE ORYSA (rice), damage score ([5]; Table 3, 200 g/ha): 8; PRE TRZAW (wheat), damage score ([6]; Table 3, 200 g/ha): 3; PRE AESIN (Aeschynomene indica), efficacy score ([7]; Table 3, 200 g/ha): 9; PRE ABUTH (Abutilon theophrasti Medicus), efficacy score ([8]; Table 3, 200 g/ha): 7; PRE IPOAN (Quamoclit pennata), efficacy score ([9]; Table 3, 200 g/ha): 9; PRE XANST (Xanthium strumarium), efficacy score ([10]; Table 3, 200 g/ha): 9; AESIN (Aeschynomene indica) herbicidal efficacy, scale of 0-10 ([11]; spray amount 200 g/ha, Table 5): 10; ABUTH (Abutilon theophrasti Medicus) herbicidal efficacy, scale of 0-10 ([12]; spray amount 200 g/ha, Table 5): 10; IPOAN (Quamoclit pennata) herbicidal efficacy, scale of 0-10 ([13]; spray amount 200 g/ha, Table 5): 8; XANST (Xanthium strumarium) herbicidal efficacy, scale of 0-10 ([14]; spray amount 200 g/ha, Table 5): 10"
